The values that follow come from patent US20250152605A1, “METHOD AND DRUG FOR TREATING NEURONAL CEROID LIPOFUSCINOSIS” (priority 2021, published 2025).

Test [1] concerns BFP-LC3 stably expressing NRK cells. Put plainly: Lysotracker staining of BFP-LC3 stably expressing NRK cells. It is filed as cell-based, rat. The conditions noted are these: treatment for 18 hours, compared with control cells. On the procedure: Moreover, after treating BFP-LC3 stably expressing NRK cells with these seven small molecule compounds for 18 hours, staining with Lysotracker dye was performed.

The subject of test [2] is CLN3^Δex7/8 human neurons. The test can be described thus: Lysotracker staining of CLN3^Δex7/8 human neurons, flow cytometry. It counts as cell-based. On the procedure: In analyzing the mean fluorescence intensity of neural stem cells and neuronal staining or single cell establishment of NRK cells, flow cytometry was used: the cell medium was aspirated off, after wash with dPBS once, the digestive enzyme corresponding to the cell type was added to digest into single cells; the supernatant was removed by centrifugation, and the cells were resuspended with 1 mL of fresh medium; the cell suspension with filtered through 40 μm filter membrane and the single cell filtrate was collected; the single cell filtrate was transferred to a flow tube and analyzed or sorted using BD FACS Aria III; in the analysis, the fluorescence intensity of 1×10^4 cells for each sample was analyzed to obtain the mean fluorescence intensity (MFI); for sorting, cells were received in 96 well plates with medium, one cell per well to establish a cell line.
Studies above have shown that CLN3^Δex7/8 human neurons feature lysosomal acidity dysregulation. To investigate the effect of Compound G on lysosomal acidity in CLN3^Δex7/8 neurons, Lysotracker dye was used for staining and flow cytometry was used for analyzing the fluorescence intensity of Lysotracker dye in cells.

Another test relates to SCMAS protein. The test can be described thus: SCMAS protein storage in neurons (immunofluorescence staining and western blot). It is filed as cell-based, human. The conditions noted are these: CLN3^Δex7/8 neurons. As for the experimental part:
Sample preparation: for adherent cultured cells, exemplified by cells cultured in a six-well cell plate, the cell medium was aspirated and the cells were washed once with dPBS. About 100 μL of RIPA lysate (50 mM Tris-HCl, pH 7.5, 150 mM NaCl, 0.25% Na-deoxycholate, 0.1% NP-40, 0.1% Triton X-100) containing protease inhibitors and phosphatase inhibitors was added to each well. The cell lysate was scraped off completely with a cell scraper and collected into 1.5 mL EP tubes. Lysis was continued for 30 minutes on ice. For animal tissue, the weight of the animal tissue was weighed, and RIPA lysate containing protease inhibitors and phosphatase inhibitors was added with five times the volume of the animal tissue. The tissue was grinded on ice with a tissue grinder until there is no obvious tissue mass, collected into 1.5 mL EP tubes, and placed on ice for further lysis for 30 min. […]

In the next test the test system is NRK cells. Put plainly: Lysotracker staining of NRK cells, flow cytometry. It is filed as cell-based, rat. The source says: The impact of increased p62 protein levels on the cellular lysosomal functions was detected: GFP-p62 proteins and GFP proteins of the control group were overexpressed in NRK cells, and Lysotracker dye was used to detect the acidity of lysosomes in GFP-positive cells.

Structures can show the parent of a compound that is named as a salt.

For `CO/C1=C\C(C)=C\[C@@H](C)[C@@H](O)[C@@H](C)C/C(C)=C/C=C/[C@H](OC)[C@@H]([C@@H](C)[C@@H](O)[C@H](C)[C@@]2(O)C[C@@H](O)[C@H](C)[C@@H](C(C)C)O2)OC1=O` [Baf-A1, bafilomycin A1], the “intracellular Lysotracker staining (lysosomal acidity)” value in test [1] is given as “significant decrease in lysosomal acidity”.
With `COC(=O)/C=C/C(=O)OC` [DMF, dimethyl fumarate, reference compound], the “Lysotracker fluorescence intensity in CLN3^Δex7/8 human neurons” value in test [2] was “significantly increased”. The “abnormal storage of SCMAS protein” value with SCMAS protein is given as “significantly reduced”. Besides, the “intracellular lysosomal acidity (Lysotracker)” value in the test on NRK cells is recorded as “significantly increase the intracellular lysosomal acidity”.
